From patent US20230227449A1, “AMIDOPYRIMIDONE DERIVATIVES” (Hoffmann-La Roche Inc., priority 2020, published 2023) come the findings set out here.

pIC50: −log10 of the molar value. Some results are limits rather than exact numbers.

Recombinant human Mat2a, sequence (P31153 whole entry): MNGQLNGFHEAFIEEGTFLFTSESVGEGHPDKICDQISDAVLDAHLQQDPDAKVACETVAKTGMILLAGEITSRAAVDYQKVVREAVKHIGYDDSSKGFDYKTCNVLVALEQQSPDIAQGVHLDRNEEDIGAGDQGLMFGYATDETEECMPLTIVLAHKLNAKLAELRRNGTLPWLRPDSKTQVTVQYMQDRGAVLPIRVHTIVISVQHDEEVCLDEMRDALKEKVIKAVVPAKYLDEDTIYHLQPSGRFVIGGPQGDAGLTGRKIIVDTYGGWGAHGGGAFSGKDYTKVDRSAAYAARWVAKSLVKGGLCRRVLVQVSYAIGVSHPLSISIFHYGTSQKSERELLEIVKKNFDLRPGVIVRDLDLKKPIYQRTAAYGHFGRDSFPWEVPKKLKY

This test deals with Recombinant human Mat2a (Homo sapiens, UniProt P31153). Briefly: Determination of Mat2A activity (384 well absorbance-based assay, Biomol Green). The format is biochemical. The settings on record: 12.5 nM Mat2A, 100 μM ATP and Methionine, 2% DMSO, 120 minutes at RT, absorbance at 635 nm. The gist of the method:
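Recombinant human Mat2A (12.5 nM) was preincubated with compound for 15 min at RT in HEPES pH 7.5 buffer with 2% DMSO. The reaction was started with 100 μM each of ATP and methionine and ran 120 min at RT. Phosphate was detected with Biomol Green by absorbance at 635 nm.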
Take `Nc1nc(=O)n(-c2cccc3c2CCO3)c2cc(OC(F)(F)F)ccc12` [Example 160, 4-amino-1-(2,3-dihydro-1-benzofuran-4-yl)-7-(trifluoromethoxy)quinazolin-2-one]: the negative logarithm of the IC50 (pIC50) was 7.74. Regarding `N#Cc1cccc(-n2c(=O)nc(N)c3ccc(C4CC4)nc32)c1F` [Example 126, 3-(4-amino-7-cyclopropyl-2-oxopyrido[2,3-d]pyrimidin-1 (2H)-yl)-2-fluorobenzonitrile], the pIC50 is > 7.89. Consider `Cc1ncccc1-n1c(=O)nc(N)c2ccc([C@@H]3C[C@H]3C)nc21` (racemic) [Example 23, 4-amino-7-((1RS,2RS)-2-methylcyclopropyl)-1-(2-methylpyridin-3-yl)pyrido[2,3-d]pyrimidin-2(1H)-one], for which the pIC50 was 7.74.

As to `Cc1ccncc1-n1c(=O)nc(N)c2ccc(C3CC3)nc21` [Example 47, 4-amino-7-cyclopropyl-1-(4-methylpyridin-3-yl)pyrido[2,3-d]pyrimidin-2(1H)-one], the pIC50 is > 7.89.

Turning to `Nc1nc(=O)n(-c2cccc3c2CCO3)c2nc(C3CC3)ccc12` [Example 17, 4-amino-7-cyclopropyl-1-(2,3-dihydrobenzofuran-4-yl)pyrido[2,3-d]pyrimidin-2(1H)-one], the negative-log IC50 (pIC50) was 7.02. Regarding `Nc1nc(=O)n(-c2cccc(Cl)c2F)c2nc(C3CC3)ccc12` [Example 161, 4-amino-1-(3-chloro-2-fluorophenyl)-7-cyclopropylpyrido[2,3-d]pyrimidin-2-one], the pIC50 was > 7.89. On to `CCc1cccc(-n2c(=O)nc(N)c3ccc(C4CC4)nc32)c1` [Example 68, 4-amino-7-cyclopropyl-1-(3-ethylphenyl)pyrido[2,3-d]pyrimidin-2(1H)-one], for which the pIC50 is > 7.89. Under `COc1cc(C(F)(F)F)cc2c1c(N)nc(=O)n2-c1cccnc1C` [Example 102, 4-amino-5-methoxy-1-(2-methylpyridin-3-yl)-7-(trifluoromethyl)quinazolin-2 (1H)-one] stands 7.85; under `COc1ccc2c(N)nc(=O)n(-c3cccnc3C)c2c1` [Example 39, 4-amino-7-methoxy-1-(2-methylpyridin-3-yl)quinazolin-2(1H)-one], > 7.89; under `Nc1nc(=O)n(C2CCOCC2)c2nc(C3CC3)ccc12` [Example 84, 4-amino-7-cyclopropyl-1-(tetrahydro-2H-pyran-4-yl)pyrido[2,3-d]pyrimidin-2(1H)-one], 6.68.

Take `Cc1c(F)cccc1-n1c(=O)nc(N)c2ccc(C3CC3)cc21` [Example 106, 4-amino-7-cyclopropyl-1-(3-fluoro-2-methylphenyl)quinazolin-2-one]: the negative logarithm of the IC50 (pIC50) was > 7.89. With `Nc1nc(=O)n(-c2c(F)cccc2F)c2nc(C3CC3)ccc12` [Example 78, 4-amino-7-cyclopropyl-1-(2,6-difluorophenyl)pyrido[2,3-d]pyrimidin-2(1H)-one], the negative logarithm of the IC50 (pIC50) was > 7.89. In the case of `Nc1nc(=O)n([C@@H]2CCCOC2)c2cc(C(F)(F)F)ccc12` [Example 46, (R)-4-amino-1-(tetrahydro-2H-pyran-3-yl)-7-(trifluoromethyl)quinazolin-2(1H)-one], the negative logarithm of the IC50 (pIC50) was 7.51. Turning to `COc1c(C#N)cccc1-n1c(=O)nc(N)c2ccc(C(C)C)nc21` [Example 38, 3-(4-amino-7-isopropyl-2-oxopyrido[2,3-d]pyrimidin-1(2H)-yl)-2-methoxybenzonitrile], the negative logarithm of the IC50 (pIC50) was > 7.89. On to `C[C@@H]1OCC[C@@H]1n1c(=O)nc(N)c2ccc(C3CC3)nc21` (relative stereo) [Example 89, 4-amino-7-cyclopropyl-1-((cis)-2-methyltetrahydrofuran-3-yl)pyrido[2,3-d]pyrimidin-2(1H)-one], for which the pIC50 is 7.28. Under `Cc1ncccc1-n1c(=O)nc(N)c2ccc(C(C)C)nc21` [Example 16, 4-amino-1-(2-methylpyridin-3-yl)-7-propan-2-ylpyrido[2,3-d]pyrimidin-2-one] stands > 7.89.

Broadly, the pIC50 is the negative decadic logarithm of the IC50, by convention in mol/L.
